Data: patent publication US12594248B2, “Stress management in human subjects in need thereof” (YEDA RESEARCH AND DEVELOPMENT CO. LTD., priority 2020, dated 2026)
One block for each molecule: values may come before it.

Tests used:
male subjects [1] = test: Subjective stress level reports under a lecture stressor, Example 1; format: in vivo, human; details: scale 0-10, FIG. 1
Protocol: For experiments 0.083M of Hexadecanal (HEX) dissolved in propylene glycol was used. Heating it for a few minutes eases the process (37° C. is sufficient). The mixture was aliquoted into daily portions, such that we thawed a daily serving prior to experiments. Participants were exposed to 100 ul of 0.083M HEX in 10 consecutive sniffs from a jar, and then taped a band aid with 30 ul on the upper lip. The band aid stayed to assure exposure throughout the experiment. Since propylene glycol has an odor, we used a masking odor.
• 30 male subjects, 15 using Olfactory Blue (OB—Hexadecanal) and 15 with placebo. […]
• Subjects—men only [mean age: 24.97 (SD=1.92)]. • An isolated office space (to avoid subject distraction) is prepared with a table and chair. • The computer, Modify standalone and the video recording are positioned and prepared. […] End of experiment • Experimenter debriefs subject—asks for general comments and feeling • Subjective stress level • End of test Measurements The following physiological measurements are recorded: 1. […] The following psychological/subjective measurements are recorded: 2. Memory test—the ability to remember a series of words seen one after the other and after conducting several simple mathematical tasks; scored by counting number of words correctly remembered. […] Subjective stress level—the stress level the subject feels at that moment; recorded on the computer. […]

[2] = test system: men and women participants; test: Subjective stress level reports, men and women, Example 2; format: in vivo, human; details: two-way ANOVA, gender and fragrance condition; F(1,56)=5.1, p=0.03; no interaction; HEX vs PLACEBO; FIG. 4
Protocol: (§1) Sixty-four participants (35 women) with an average age of 27.34 (SD 4.65), half participated in the HEX group and the other half in the PLACEBO group. The study was conducted in Ra'anana, Israel in a rented office using a laptop computer.
(§2) Participants came in separately into the Ra'anana office, a research assistant (RA) welcomed them. After a short brief, participants were introduced with a bottle of liquid and were required to smell the bottle for 1 minute (with the instruction to breath normally). After being exposed to the smell, the RA explained about the three tasks (memory, attention, public speaking—the stressor). Participants reported their stress level before and after each assignment (7 times). Just before the last task, participants were informed that this task was canceled and then were asked to report their stress level for the last time.
The first stress report was given pre-manipulation; therefore, it may shed light upon the general stress level of the participants. Mean score for first stress report was 3.32 (SD 1.68) for men and 2.59 (SD 1.76) for women.
A two-way ANOVA was conducted with average stress (measures 2-6) as a dependent variable and gender and fragrance condition as the independent variables. […] Main effect for fragrance was also significant, F(1,56)=5.1, p=0.03. No interaction was found (F<0.1). […]

[3] = test system: men and women participants; test: Memory test (free recall), Example 2; format: in vivo, human; details: HEX vs placebo group
Protocol: as §1, §2

[4] = test system: mouse OR37 receptor subtype B; details: Klein et al [15]; cited from earlier work
male subjects [5] = test: Memory test (free recall), Example 1; format: in vivo, human; details: FIG. 3
Protocol: (§3) • 30 male subjects, 15 using Olfactory Blue (OB—Hexadecanal) and 15 with placebo. […] Equipment • Computer/laptop with test script and cognitive tests • HR wrist monitor and Central unit • Video camera • 2×50 ml identical bottles—one with OB (solvent+Hexadecanal) and one only with dipropylene glycol (DPG) Goals and KPIs.
• Subjects—men only [mean age: 24.97 (SD=1.92)]. • An isolated office space (to avoid subject distraction) is prepared with a table and chair. • The computer, Modify standalone and the video recording are positioned and prepared. […] End of experiment • Experimenter debriefs subject—asks for general comments and feeling • Subjective stress level • End of test Measurements The following physiological measurements are recorded: 1. […] The following psychological/subjective measurements are recorded: 2. Memory test—the ability to remember a series of words seen one after the other and after conducting several simple mathematical tasks; scored by counting number of words correctly remembered. […] Subjective stress level—the stress level the subject feels at that moment; recorded on the computer.

[6] = test system: men and women participants; test: Average heart rate (HR) along the experiment, Example 2; format: in vivo, human; details: men and women together; FIG. 5, p<0.0001
Protocol: as §1, §2

male subjects [7] = test: Stroop test (attention, cognitive performance), Example 1; format: in vivo, human; details: FIG. 2
Protocol: as §3
• Subjects—men only [mean age: 24.97 (SD=1.92)]. • An isolated office space (to avoid subject distraction) is prepared with a table and chair. • The computer, Modify standalone and the video recording are positioned and prepared. Test Running • Subject is introduced and asked to take place in front of computer • Experimenter briefs the subject on the test procedure in general • Subject fills in a consent form (including GDPR consent) and signs the receipt for the money (see form in annex) • Subject fills in personal data on the computer • Experimenter presents the scent bottle (OB or Placebo) given to them by an assistant (who records which bottle has been given) to the subject to smell five sniffs within one minute (2% in the bottle). • Subject is asked about their subjective stress level on a scale between 0 (no stress at all) to 10 (extreme stress)—questionnaire on the computer • Experimenter completes the briefing and introduce 3 assignments to the participants: a memory task, a Stroop task and the stress manipulation—subject will have to give a 5 min lecture to an audience on one of three given topics—stressor. • Subject starts the experiment by following instructions on the computer: 1. […] End of experiment • Experimenter debriefs subject—asks for general comments and feeling • Subjective stress level • End of test Measurements The following physiological measurements are recorded: 1. […] The following psychological/subjective measurements are recorded: 2. Memory test—the ability to remember a series of words seen one after the other and after conducting several simple mathematical tasks; scored by counting number of words correctly remembered. […] Subjective stress level—the stress level the subject feels at that moment; recorded on the computer.

[8] = test system: men and women participants; test: Attention test (Stroop test), Example 2; format: in vivo, human; details: HEX vs placebo group
Protocol: as §1, §2

[9] = test system: mouse OR37 receptor subtype C; details: Klein et al [15]; cited from earlier work
[10] = test system: mouse OR37 receptor subtype A; details: Klein et al [15]; cited from earlier work

- memory (free recall), difference between groups [3]: did not differ
- free recall assignment, difference between conditions (male subjects [5]): no differences
- Stroop test number of errors, blue vs placebo (male subjects [7]): No differences
- Stroop test reaction time, blue vs placebo (male subjects [7]): No differences
- cognitive performance relative to placebo (male subjects [7]; as evidenced by the Stroop test): does not affect cognitive performance
- attention (Stroop test), difference between groups [8]: did not differ
Compound: CCCCCCCCCCCCCCCC=O [HEX, Hexadecanal]
- subjective stress report, difference between groups (male subjects [1]; stress0 (baseline) and stress4 (end, after being told there will be no lecture)): no difference
- subjective stress report vs Placebo group (male subjects [1]; stress1, stress2, stress3 (after assignments and smelling, after memory test, after Stroop test), 15 vs 15 men, p<0.01): significantly lower degree
- average stress (measures 2-6), main effect for fragrance [2]: significant
- activation of OR37 subtype B [4]: activated
- average HR vs placebo group [6]: lower

Compound: CCCCCCCCCCCCCCCCC=O [heptadecanal]
- activation of OR37 subtype C [9]: activated

Compound: CCCCCCCCCCCCCCC=O [pentadecanal]
- activation of OR37 subtype A [10]: activated
